According to patent US20200131473A1, “METHOD OF GENERATING 2 CELL-LIKE STEM CELLS” (IFOM FONDAZIONE ISTITUTO FIRC DI ONCOLOGIA MOLECOLARE, priority 2017, published 2020):

How the values were obtained:
Type in all cases: cell-based, mouse
[1] = test system: Nanog, Pou5f1 (Oct4), Sox2; assay: Immunostaining and qPCR for canonical pluripotency markers in ESCs; details: upon APH treatment
Description: RNA was extracted using RNeasy mini kit (QIAGEN), quantified by NanoDrop spectrophotometer and cDNA was prepared from 2 μg total DNA-depleted RNA using SuperScript™ III reverse transcriptase kit (Invitrogen cat #18080-093) following manufacturer's instructions. qPCR assay performed based on standard protocol using […] SsoFast™ EvaGreen® Supermix or later 1× LightCycler 480 SYBR Green I Master (Roche, 04707516001), 0.5 μM primer mix and 5 ng of cDNA. GAPDH was used as internal control to normalise the qPCR data following ΔΔCt method, 10 μM primer mix and a total amount of cDNA corresponding to 5 ng of starting RNA for each reaction. […] Then, cells were incubated with primary antibody at 4° C. overnight, followed by washes and incubation with secondary antibody for an hour at room temperature. Next samples were mounted and images were acquired with wide field florescent microscope. Antibodies used in this study were Anti Oct-3/4 (Santa Cruz sc-5279), Anti Nanog (Abcam ab80892) and Plet-1 antibody (Nordic MUbio MUB1512P) and), Anti-GFP (Abcam, ab5450). Acquired figures were analyzed with ImageJ software.

ATR Seckel and WT ESCs = assay: In-vitro differentiation toward giant trophoblast-like cells
Description: RNA was extracted using RNeasy mini kit (QIAGEN), quantified by NanoDrop spectrophotometer and cDNA was prepared from 2 μg total DNA-depleted RNA using SuperScript™ III reverse transcriptase kit (Invitrogen cat #18080-093) following manufacturer's instructions. qPCR assay performed based on standard protocol using 10× SsoFast™ EvaGreen® Supermix or later 1× LightCycler 480 SYBR Green I Master (Roche, 04707516001), 0.5 μM primer mix and 5 ng of cDNA. GAPDH was used as internal control to normalise the qPCR data following ΔΔCt method, 10 μM primer mix and a total amount of cDNA corresponding to 5 ng of starting RNA for each reaction.
Then, cells were incubated with primary antibody at 4° C. overnight, followed by washes and incubation with secondary antibody for an hour at room temperature. Next samples were mounted and images were acquired with wide field florescent microscope. Antibodies used in this study were Anti Oct-3/4 (Santa Cruz sc-5279), Anti Nanog (Abcam ab80892) and Plet-1 antibody (Nordic MUbio MUB1512P) and), Anti-GFP (Abcam, ab5450). Acquired figures were analyzed with ImageJ software. […]

pZscan4-Emerald ESCs = assay: FACS for Emerald-GFP and CASPASE-3 (apoptosis); details: mostly at high concentration
Excerpt: ESCs were fixed and permeabilized using Cytoperm/Cytofix kit (BD Biosciences), and subsequently stained for one hour at room temperature with Alexa Fluor® 647 anti-H2AX-Phosphorylated (Ser139) antibody (Biolegend) or P-CHK1-PE conjugated antibody (cell signaling 12268). Cells were washed and acquired on a FACS Calibur instrument or Attune NxT (Thermo Fisher Scientific). For Emerald-GFP acquisition, cells were trypsinized, collected and subsequently acquired without fixation. Cell cycle profiles were acquired after incubation with DAPI (4′,6-diamidino-2-phenylindole) overnight. For Caspase3 FACS analysis after fixation and permeabilization, Cleaved Caspase3 antibody were used for one hr at RT followed by washes and one hr incubation in donkey anti rabbit secondary antibody. […]

C[C@@]1(CO)[C@H](O)CC[C@@]2(C)[C@H]1CC[C@H]1C[C@@H]3C[C@@]12CC[C@]3(O)CO [APH, aphidicolin]
Nanog, Pou5f1 (Oct4) protein in Zscan4 positive cells (immunostaining) [1]: mild downregulation
expression of pluripotency related genes at the transcriptional level ([1]; Sox2, Nanog, Pou5f1, Rex1): no significant alterations
number of giant trophoblast-like cells (ATR Seckel and WT ESCs; APH treatment): more than three folds
giant trophoblast cell specific marker Prl2c2 (qPCR) in ATR activated condition (ATR Seckel and WT ESCs; wild type ESC treated with APH): highest expression
cell apoptosis (CASPASE-3) (pZscan4-Emerald ESCs): mild cell apoptosis
